Assay results reported in patent US7083655B2, “Hair dye composition” (Kao Corporation, priority 2002, dated 2006).

Experiment: Measurement of pKa value (spectrophotometric titration)
Assay type: physicochemical
Conditions: DMF/water (1/1) solution, 2×10^−5 mol/l, titrated from pH 2 with NaOH, UV-visible spectrum, read-out: pKa value determined
Procedure: pKa values of the azo dyes described below were determined by the following method; The dye was dissolved in a solution of a DMF/water (1/1) volume ratio to a final concentration of 2×10^−5 mol/l. After the resulting solution was adjusted to pH 2, using 1.0 mol/l hydrochloric acid, the solution was titrated with aqueous 1.0 mol/l sodium hydroxide solution. Recording the change of the visible ultra-violet absorption spectrum, the inflection point was determined by regression analysis.

Going from CC(=O)Nc1cc(/N=N/c2nncs2)ccc1O [Dye D-29] to CC(=O)Nc1cc(/N=N/c2nncs2)c(NC(C)=O)cc1O [Dye D-46], the pKa falls from 6.04 to 5.15.

Compared with CCSc1nsc(/N=N/c2cc(Cl)c(O)c(NC(=O)CC)c2)n1 [Dye D-30], CCSc1nsc(/N=N/c2cc(Cl)c(O)cc2Cl)n1 [Dye D-38] is higher in pKa: 3.05 for the first, 3.5 for the second.

Compared with Cc1cc(/N=N/c2snc(C)c2C#N)ccc1O [Dye D-37], Cc1nsc(/N=N/c2ccc(O)c(Cl)c2)c1C#N [Dye D-41] is lower in pKa: 6.37 for the first, 5.02 for the second.

First: COc1cc(/N=N/c2snc(C)c2C#N)ccc1O [Dye D-39]
Second: Cc1nsc(/N=N/c2cc(F)c(O)c(F)c2)c1C#N [Dye D-43]
The pKa of the first is higher: 5.52 for the first, 3.9 for the second.

Going from Oc1cc(Cl)c(/N=N/c2nc3ccc(Cl)cc3s2)cc1Cl [Dye D-40] to CC(C)CSc1nnc(/N=N/c2cc(Cl)c(O)c(Cl)c2Cl)s1 [Dye D-45], the pKa falls from 4.46 to 2.28.

Work on Oc1c(Cl)cc(/N=N/c2nncs2)cc1Cl [Dye D-56] yielded a pKa of 3.56.

Same assay, conditions: DMF/water (1/1), 2×10^−5 mol/l, titrated from pH 2 with NaOH, UV-visible spectrum

First: Cc1cc(/N=N/c2nc(-c3cccc(NS(C)(=O)=O)c3)ns2)cc(NCOc2ccccc2NS(C)(=O)=O)c1O [Dye D-34]
Second: Oc1c(NCOc2ccncc2)cc(/N=N/c2nc(-c3ccccc3)no2)c2ccccc12 [Dye D-49]
The pKa value determined of the first is lower: 4.39 for the first, 5.39 for the second.
